Results on three molecules are retold here after patent US4211779A, “7α-Methoxy substituted cephalosporins” (Shionogi & Co., Ltd., priority 1976, dated 1980).

Structures are written as SMILES. ≈ marks a conversion by molar mass, not a printed value.

Holding throughout (assay type): cell-based
Experiment [1] has as its system gram negative bacteria resistant to cephalosporins. The experiment in a line: antibacterial activity against gram negative bacteria resistant to cephalosporins. As to conditions: compared with the compound wherein Y is hydrogen.
The subject of another experiment is Escherichia coli No. 73. The experiment in a line: Antibacterial activity (MIC), Escherichia coli No. 73. The procedure: (§1) Free acids found in Examples 2 to 5 are dissolved in dilute aqueous sodium hydrogencarbonate solution to yield the corresponding aqueous sodium salts solutions.
The subject of experiment [2] is Klebsilla pneumoniae No. 363. As to the kind of experiment: Antibacterial activity (MIC), Klebsiella pneumoniae No. 363. The procedure: as §1
[3] abbreviates: NO.363, Klebsiella pneumoniae No. 363, innoculum size 10^6.
Where [4] appears, read: NO.363, Klebsiella pneumoniae No. 363, innoculum size 10^8.

The MIC is the smallest concentration in the dilution series that meets the test's criterion for growth inhibition. Read a low MIC as inhibition by little substance. In the case of `CCN1CCN(C(=O)NC(C(=O)NC2(OC)C(=O)N3C(C(=O)O)=C(CSc4nnnn4C)CSC32)c2ccc(O)cc2)C(=O)C1=O` (stereo not shown) [Y OCH3], in experiment [1], the “antibacterial activity against gram negative bacteria resistant to cephalosporins” value is “more potent antibacterial activity”. In addition, the minimal inhibitory concentration (MIC) in the experiment with Escherichia coli No. 73 (innoculum size 10^6) was 1.6 µg/mL (≈ 2.37 µM); in the experiment with Escherichia coli No. 73 (innoculum size 10^8) it was 3.1 µg/mL (≈ 4.59 µM); in experiment [2] (setting [3]), 0.8 µg/mL (≈ 1.18 µM); in experiment [2] (setting [4]), 1.6 µg/mL (≈ 2.37 µM).

In the case of `CCN1CCN(C(=O)NC(C(=O)N[C@@H]2C(=O)N3C(C(=O)O)=C(CSc4nnnn4C)CS[C@H]23)c2ccc(O)cc2)C(=O)C1=O` (stereo partly shown) [Y H], the MIC with Escherichia coli No. 73 (innoculum size 10^6) was 25 µg/mL (≈ 38.7 µM); in the experiment on Escherichia coli No. 73 (innoculum size 10^8) it was more than 100 µg/mL; in experiment [2] (setting [3]), 100 µg/mL (≈ 155 µM); in experiment [2] (setting [4]), more than 100 µg/mL.

For the molecule `CO[C@@]1(NC(=O)Cc2cccs2)C(=O)N2C(C(=O)O)=C(COC(N)=O)CS[C@@H]21` [cefoxitin], the MIC with Escherichia coli No. 73 (innoculum size 10^6) stood at 12.5 µg/mL (≈ 29.2 µM); against Escherichia coli No. 73 (innoculum size 10^8), 12.5 µg/mL (≈ 29.2 µM); in experiment [2] (setting [3]) it was 1.6 µg/mL (≈ 3.74 µM); in experiment [2] (setting [4]), 6.3 µg/mL (≈ 14.7 µM).
